# According to patent publication US11814372B2, “Agonists of EPHA and their uses” (CASE WESTERN RESERVE UNIVERSITY, priority 2017, dated 2023):
# Entries after “also recorded” stand apart in the source; their conditions may differ.
# Columns and labels:
# EphA4 LBD = biological target: T1, EphA4 LBD (Homo sapiens, UniProt P54764); experiment: Isothermal titration calorimetry (ITC) binding; details: read-out: dissociation constant (KD)
# T1 construct: made in house
# Procedure: Production of the 181-residue EphA4 ligand binding domain (LBD, residues 29-209) and isothermal titration calorimetry (ITC) experiments were performed as previously described. […] By superimposing HSQC spectra, the shifted HSQC peaks could be identified and further assigned to the corresponding residues of the EphA4 ectodomain. The degree of perturbation was measured by an integrated chemical shift index (CSI) calculated by the formula [(ΔH)^2+(ΔN)^2/5]^1/2.
# EphA2 [1] = biological target: T2, EphA2 (Homo sapiens, UniProt P29317); experiment: Activation of endogenous EphA2 in PC-3 cells (pEphA/B immunoblot); assay type: cell-based; design: host or cells: PC-3; details: endogenous EphA2, 30 minutes
# T2 sequence (P29317 24-976): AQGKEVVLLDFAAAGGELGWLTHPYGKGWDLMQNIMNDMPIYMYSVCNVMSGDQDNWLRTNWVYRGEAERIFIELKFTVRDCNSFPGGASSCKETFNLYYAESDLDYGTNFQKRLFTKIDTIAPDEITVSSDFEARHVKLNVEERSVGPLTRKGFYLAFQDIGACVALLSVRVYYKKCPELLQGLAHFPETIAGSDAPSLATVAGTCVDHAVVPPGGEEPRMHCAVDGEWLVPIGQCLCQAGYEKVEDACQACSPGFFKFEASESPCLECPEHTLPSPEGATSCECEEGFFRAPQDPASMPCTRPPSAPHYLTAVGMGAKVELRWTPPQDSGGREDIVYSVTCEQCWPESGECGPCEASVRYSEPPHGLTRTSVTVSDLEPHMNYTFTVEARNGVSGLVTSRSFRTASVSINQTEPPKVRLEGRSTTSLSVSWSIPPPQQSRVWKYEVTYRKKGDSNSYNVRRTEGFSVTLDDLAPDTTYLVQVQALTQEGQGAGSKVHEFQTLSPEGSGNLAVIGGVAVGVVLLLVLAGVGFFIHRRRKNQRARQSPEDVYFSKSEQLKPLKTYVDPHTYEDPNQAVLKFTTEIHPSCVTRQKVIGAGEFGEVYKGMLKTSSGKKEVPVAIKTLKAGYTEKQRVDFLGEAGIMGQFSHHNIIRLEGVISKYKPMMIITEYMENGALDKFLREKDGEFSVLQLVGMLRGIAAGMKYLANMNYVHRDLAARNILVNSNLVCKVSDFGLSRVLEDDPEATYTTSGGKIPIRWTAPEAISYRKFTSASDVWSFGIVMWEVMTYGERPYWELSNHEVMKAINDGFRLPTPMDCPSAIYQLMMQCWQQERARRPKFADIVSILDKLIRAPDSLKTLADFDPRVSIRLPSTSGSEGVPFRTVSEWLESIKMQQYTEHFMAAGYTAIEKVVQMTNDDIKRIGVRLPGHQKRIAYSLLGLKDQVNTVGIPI
# Procedure: (§1) Cells were plated in 24-well dishes at a density of 100,000 cells/well and grown for 24 hours prior to stimulation with appropriate compounds and ephrins for the given amounts of time. Compounds were prepared in DMSO at 500 times the final concentrations and 0.2% DMSO was used as vehicle control. Following treatment, cells were lysed directly in SDS Gel Loading Buffer and immunoblotted as described previously. Immunoprecipitation and immunofluorescence staining was performed as described. For immunoprecipitation, 300,000 cells/well were plated in 6-well dishes and lysed in modified RIPA Buffer (20 mM Tris-HCl pH 7.4, 20 mM NaF, 150 mM NaCl, 10% glycerol, 0.1% SDS, 0.5% DCA, 2 mM EDTA, 1% Triton X-100) following treatment. Either […] of ephrin-A1-Fc, or […] of EphA2 mouse monoclonal antibody (Clone D7, Millipore) were used, and mouse IgG was used as a negative control for EphA2 IP.
# To determine whether the EphA2 agonist activity of doxazosin is cell-context specific, we evaluated the effects of doxazosin on additional cell types. We first utilized HEK 293 cells overexpressing EphA2 (HEK 293-A2) that we described previously. […] Next we tested PC-3 cells that express high levels of endogenous EphA2 receptor. […] We next evaluated the time-course of activation in both MDA-231-A2 and HEK 293-A2 cells upon treatment with a single 50 μM dose of doxazosin.
# ERK and Akt = ERK and Akt inhibition in LK133A-Vec and LK133A-A2 liver epithelial cells (immunoblot); assay type: cell-based, mice
# Procedure: as §1
# To address this question, we utilized an immortalized liver epithelial cell line, LK133A, isolated from a hepatoma induced by DEN in EphA2 knockout mice. Retroviral vector was used to restore EphA2 expression in these cells (LK133A-A2), and cells transduced with an empty vector were used as control (LK133AVec).
# EphA2 [2] = biological target: T2, EphA2; experiment: EphA2 activation in A172-A2 glioma cells (immunoprecipitation, immunoblot); assay type: cell-based; design: expressed in transfected cells; host or cells: A172 (A172-A2)
# Procedure: Cells were plated in 24-well dishes at a density of 100,000 cells/well and grown for 24 hours prior to stimulation with appropriate compounds and ephrins for the given amounts of time. Compounds were prepared in DMSO at 500 times the final concentrations and 0.2% DMSO was used as vehicle control. Following treatment, cells were lysed directly in SDS Gel Loading Buffer and immunoblotted as described previously. […] For immunoprecipitation, 300,000 cells/well were plated in 6-well dishes and lysed in modified RIPA Buffer (20 mM Tris-HCl pH 7.4, 20 mM NaF, 150 mM NaCl, 10% glycerol, 0.1% SDS, 0.5% DCA, 2 mM EDTA, 1% Triton X-100) following treatment. Either 10 ag of ephrin-A1-Fc, or 4 mg of EphA2 mouse monoclonal antibody (Clone D7, Millipore) were used, and mouse IgG was used as a negative control for EphA2 IP. […] We first tested this by utilizing the A172 glioma cells engineered to overexpress EphA2 receptor (A172-A2).
# PC3-DAB2IP KD cells = experiment: In vivo metastasis assay, orthotopic PC3-DAB2IP KD prostate xenograft
# Procedure: PC-3 cells (from ATCC) engineered to express both GFP and DAB2IP shRNA were characterized previously. Cells were suspended in serum free medium and 2,000 cells injected directly into the prostate glands of 7 week old NCr athymic nu/nu mice. Three days after injection, mice were divided into two groups, one receiving vehicle alone (5% DMSO/10% Cremophor/PBS) and another 50 mg/kg doxazosin via intraperitoneal injection daily for 10 days. Mice were sacrificed 14 days later and intact primary tumors were imaged under a UV light box with a Digital camera. Lungs were dissected into separate lobes and GFP-expressing metastases were imaged using an inverted fluorescent microscope (Leica). Metastases were enumerated in the two largest lung lobes and placed into size categories based upon their diameters, measured in number of cells (1-10 cells). Total metastatic burden was calculated in each mouse using the following equation: [burden=Σ (# of foci×focus diameter)].
# Historically, studies of prostate cancer metastasis in the preclinical setting have been hampered by the lack of human cell lines that can produce significant metastasis in a reproducible manner. […] We took advantage of this newly established model system to test how doxazosin can affect metastasis of prostate cancer. To this end, PC3-DAB2IP KD cells were injected orthotopically into the prostate glands of nude mice. Three days later, recipient mice were subject to systemic treatment by daily i.p. injection of either vehicle control, or 50 mg/kg doxazosin for 10 days. Since these cells also expressed green fluorescent protein (GFP), freshly dissected primary tumors could be readily visualized in a GFP light box (FIG. 7A top panels), and distal metastases to lungs and lymph nodes could be observed and quantified under a fluorescent microscope (FIG. 7A lower panels).
# Next, we determined whether doxazosin treatment might impact overall survival. Nude mice orthotopically implanted with the PC3-DAP2IP KD cells were treated for 10 days with either doxazosin, or vehicle control and monitored for survival.
# EphA4 = biological target: T3, EphA4 (Homo sapiens, UniProt P54764); experiment: Eph receptor activation in HEK 293 cells overexpressing EphA4; assay type: cell-based; details: HEK 293 cells overexpressing EphA4, 60 minutes
# T3 construct: expressed in transfected cells; host or cells: HEK 293
# T3 sequence (P54764 20-986, species assumed): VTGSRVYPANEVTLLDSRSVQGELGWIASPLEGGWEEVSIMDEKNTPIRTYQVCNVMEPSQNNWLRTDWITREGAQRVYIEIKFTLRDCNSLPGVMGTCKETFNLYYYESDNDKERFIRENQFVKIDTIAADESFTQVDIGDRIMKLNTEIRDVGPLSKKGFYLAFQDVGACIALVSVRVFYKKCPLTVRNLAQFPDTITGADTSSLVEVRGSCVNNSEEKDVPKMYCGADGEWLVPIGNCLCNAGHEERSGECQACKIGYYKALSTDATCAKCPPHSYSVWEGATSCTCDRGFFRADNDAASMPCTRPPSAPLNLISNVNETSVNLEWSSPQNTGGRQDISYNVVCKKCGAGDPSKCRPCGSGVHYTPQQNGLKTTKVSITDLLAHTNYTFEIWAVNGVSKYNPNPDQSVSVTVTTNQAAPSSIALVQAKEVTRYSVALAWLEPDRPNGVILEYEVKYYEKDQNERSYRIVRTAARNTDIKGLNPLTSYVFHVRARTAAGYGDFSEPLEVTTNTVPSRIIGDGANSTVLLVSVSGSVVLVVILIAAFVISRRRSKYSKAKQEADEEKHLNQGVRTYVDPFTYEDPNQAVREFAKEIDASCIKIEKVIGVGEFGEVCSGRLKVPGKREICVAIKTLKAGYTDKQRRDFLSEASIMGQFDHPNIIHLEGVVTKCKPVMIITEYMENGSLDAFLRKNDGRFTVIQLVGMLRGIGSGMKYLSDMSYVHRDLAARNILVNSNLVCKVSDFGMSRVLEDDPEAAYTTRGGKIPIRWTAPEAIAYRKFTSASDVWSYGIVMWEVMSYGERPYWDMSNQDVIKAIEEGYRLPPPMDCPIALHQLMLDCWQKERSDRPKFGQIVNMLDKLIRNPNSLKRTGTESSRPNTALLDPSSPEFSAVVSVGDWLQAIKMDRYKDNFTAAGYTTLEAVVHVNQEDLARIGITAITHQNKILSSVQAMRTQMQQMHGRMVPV
# Procedure: Cells were plated in 24-well dishes at a density of 100,000 cells/well and grown for 24 hours prior to stimulation with appropriate compounds and ephrins for the given amounts of time. Compounds were prepared in DMSO at 500 times the final concentrations and 0.2% DMSO was used as vehicle control. Following treatment, cells were lysed directly in SDS Gel Loading Buffer and immunoblotted as described previously. […] For this purpose, HEK 293 cell lines overexpressing EphA1, EphA2, EphA3, EphA4, and EphB3 kinases were utilized.
# EphA2 [3] = biological target: T2, EphA2; experiment: EphA2 receptor internalization in U373-A2 glioma cells (immunofluorescence); assay type: cell-based; design: expressed in transfected cells; host or cells: MDA-MB-231 (MDA-231-A2), HEK 293 (HEK 293-A2), A172 (A172-A2), U373 (U373-A2); details: 60 min, 50 μM DZ or 1 μg/ml ephrin-A1-Fc
# Procedure: as §1
# (§2) Similar to other receptor tyrosine kinases, activation of the EphA2 receptor by its ligand, ephrin-A1, results in receptor internalization and eventual degradation. […] This was first performed using the U373 glioma cell line engineered to overexpress EphA2.
# EphA2 [4] = biological target: T2, EphA2; experiment: Internalization of endogenous EphA2 in parental MDA-MB-231 cells (immunofluorescence); assay type: cell-based; details: two hours, 50 μM
# Procedure: as §1, §2
# [5] = tested on: MDA-MB-231, A172-A2 and PC3-DAB2IP KD cells; experiment: Chemotactic cell migration toward hepatocyte growth factor (HGF); assay type: cell-based; details: all three cell lines; lesser degree than in the haptotactic assay
# [6] = nude mice, 50 mg/kg i.p. daily for 10 days
# T1 sequence (P54764 29-209, species assumed): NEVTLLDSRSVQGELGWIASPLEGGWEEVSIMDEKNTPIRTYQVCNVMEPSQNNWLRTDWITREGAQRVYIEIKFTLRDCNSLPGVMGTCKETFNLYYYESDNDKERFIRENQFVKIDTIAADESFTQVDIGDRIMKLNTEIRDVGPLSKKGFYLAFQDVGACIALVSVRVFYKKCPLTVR
smiles,measurement,setting,value
COc1cc2nc(N3CCN(C(=O)C4COc5ccccc5O4)CC3)nc(N)c2cc1OC (stereo not drawn) [doxazosin],Kd,EphA4 LBD,12.4 µM
same,concentration at which EphA2 activation became evident,EphA2 [1],50 µM
same,ERK and Akt inhibition after reintroduction of EphA2 expression,ERK and Akt; LK133A-A2 cells,restored ERK and Akt inhibition
same,inhibition of ERK and Akt activities in the absence of EphA2,"ERK and Akt; LK133A-Vec cells (EphA2 knockout, empty vector)",neither doxazosin nor ephrin-A1-Fc was able to inhibit ERK and Akt activities; also recorded: notable increase in ERK and Akt activation
same,concentration at which EphA2 activation starts,"EphA2 [2]; A172-A2 glioma cells, 90 minutes",around 25 μM
same,EphA2 level after treatment,EphA2 [2]; A172 cells,degradation of EphA2
same,overall survival,"PC3-DAB2IP KD cells; at 27 days after cell implantation, treated for 10 days, vehicle 30%",70%
same,behavioral abnormalities,PC3-DAB2IP KD cells; [6],nor were there any signs of behavioral abnormalities
same,body weight compared with vehicle control,PC3-DAB2IP KD cells; [6],no changes in body weight
same,number of lung metastases compared to vehicle control,PC3-DAB2IP KD cells; [6],significant reduction in the number of lung metastases
same,reduction in primary tumor sizes,PC3-DAB2IP KD cells; [6],the difference was not statistically significant
same,sizes of lung metastases compared to vehicle-treated mice,PC3-DAB2IP KD cells; [6],significantly smaller
same,total metastatic burden (numbers and sizes of metastases),PC3-DAB2IP KD cells; [6],even more significantly reduced
same,tumor cell dissemination to local lymph nodes,PC3-DAB2IP KD cells; [6],"reduced, but not to a significant extent"
same,"EphA4 kinase activation, Eph receptor panel",EphA4,activated both EphA2 and EphA4 kinases
same,EphA2 internalization,EphA2 [3],significant EphA2 internalization
same,internalization of endogenous EphA2,EphA2 [4],significant internalization of the endogenous EphA2
same,chemotactic cell migration toward HGF,[5],dose-dependent inhibition
